Reference: patent US9468640B2, “Piperidin-4-yl-pyridazin-3-ylamine derivatives as fast dissociating dopamine 2 receptor antagonists” (Janssen Pharmaceutica N.V., priority 2005, dated 2016)

molecular target: T1, human Dopamine D2L receptor (Homo sapiens, UniProt P14416); experiment: In vitro binding affinity for human D2L receptor ([3H]spiperone competition); conditions: membranes of human D2L receptor-transfected CHO cells, 30 min, 37° C.
T1 construct: expressed in transfected cells; host or cells: CHO cells
T1 sequence (P14416 whole entry): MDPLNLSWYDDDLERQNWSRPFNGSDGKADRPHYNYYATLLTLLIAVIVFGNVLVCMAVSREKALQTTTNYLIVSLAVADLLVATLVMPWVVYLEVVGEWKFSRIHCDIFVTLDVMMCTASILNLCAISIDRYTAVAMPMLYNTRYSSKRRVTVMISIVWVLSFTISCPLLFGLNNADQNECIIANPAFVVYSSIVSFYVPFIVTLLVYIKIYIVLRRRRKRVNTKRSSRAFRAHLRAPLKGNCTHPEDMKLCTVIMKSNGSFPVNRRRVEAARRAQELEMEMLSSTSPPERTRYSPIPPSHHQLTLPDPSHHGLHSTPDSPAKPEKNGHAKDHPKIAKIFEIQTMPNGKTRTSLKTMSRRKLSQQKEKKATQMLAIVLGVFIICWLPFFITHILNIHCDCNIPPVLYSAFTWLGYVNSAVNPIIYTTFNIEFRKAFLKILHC
Description: Frozen membranes of human Dopamine D2L receptor-transfected CHO cells were thawed, briefly homogenised using an Ultra-Turrax T25 homogeniser and diluted in Tris-HCl assay buffer containing NaCl, CaCl2, MgCl2, KCl (50, 120, 2, 1, and 5 mM respectively, adjusted to pH 7.7 with HCl) to an appropriate protein concentration optimised for specific and non-specific binding. Radioligand [^3H]Spiperone (NEN, specific activity ˜70 Ci/mmol) was diluted in assay buffer at a concentration of 2 nmol/L. Prepared radioligand (50 μl), along with 50 μl of either the 10% DMSO control, Butaclamol (10^−6 mol/l final concentration), or compound of interest, was then incubated (30 min, 37° C.) with 400 μl of the prepared membrane solution. Membrane-bound activity was filtered through a Packard Filtermate harvester onto GF/B Unifilterplates and washed with ice-cold Tris-HCl buffer (50 mM; pH 7.7; 6×0.5 ml). Filters were allowed to dry before adding scintillation fluid and counting in a Topcount scintillation counter. Percentage specific bound and competition binding curves were calculated using S-Plus software (Insightful).

Row | SMILES | IC50 [µM]
1 | CN(c1ccc(Cl)nn1)C1CCN(Cc2cccc(C(F)(F)F)c2)CC1 [Example E25, N-[1-(3-trifluoromethylbenzyl)piperidin-4-yl]-N-methyl-6-chloropyridazin-3-amine] | < 6.31
2 | Fc1ccccc1CN1CCC(Nc2ccc(C(F)(F)F)nn2)CC1 [Example E8, N-[1-(2-fluorobenzyl)piperidin-4-yl]-6-(trifluoromethyl)pyridazin-3-amine] | < 6.31
3 | CC(c1ccc(F)c(F)c1)N1CCC(Nc2ccc(C(F)(F)F)nn2)CC1 (racemic) [Example E45, (R,S)—N-[1-(3,4-difluoro-α-methylbenzyl)piperidin-4-yl]-6-(trifluoromethyl)pyridazin-3-amine] | < 6.31

Continued, values first:

Row | IC50 [µM] | SMILES
4 | < 6.31 | CC(c1ccc(F)cc1)N1CCC(Nc2ccc(C(F)(F)F)nn2)CC1 (stereo not drawn) [Example E44, N-[1-(4-fluoro-α-methylbenzyl)piperidin-4-yl]-6-(trifluoromethyl)pyridazin-3-amine]
5 | < 6.31 | COc1ccc(CN2CCC(Nc3ccc(C(F)(F)F)nn3)CC2)cc1F [Example E41, N-[1-(3-fluoro-4-methoxybenzyl)piperidin-4-yl]-6-(trifluoromethyl)pyridazin-3-amine]
6 | < 6.31 | Fc1ccc(CN2CCC(Nc3ccc(C(F)(F)F)nn3)CC2)c(F)c1 [Example E42, N-[1-(2,4-difluorobenzyl)piperidin-4-yl]-6-(trifluoromethyl)pyridazin-3-amine]

tested on: not given; experiment: not given; conditions: not given

Row | melting point [°C] | SMILES
7 | 163.3 to 165.3 | Fc1ccc(CN2CCC(Nc3ccc(C(F)(F)F)nn3)CC2)cc1 [Example E2, N-[1-(4-fluorobenzyl)piperidin-4-yl]-6-(trifluoromethyl)pyridazin-3-amine]
